These results are taken from US10577373B2, “TYK2 inhibitors and uses thereof” (Nimbus Lakshmi, Inc., priority 2017, dated 2020).

The structures appear in SMILES notation. pIC50: −log10 of the molar value. Read-outs that look alike come from different tables or passages of the source. Where only a bound is given, the exact number is not on record here.

What is called pIC50 is the IC50 on a negative log10 scale, so that one unit is a factor of ten.

Assay [1] has as its system GM-CSF induced STAT5 phosphorylation mediated by the JAK2/JAK2 homdimeric complex. As to the kind of experiment: GM-CSF Induced pSTAT5 in Human PBMC. To be noted: GM-CSF 5 ng/mL for 20 minutes, pSTAT5.
Excerpt: Human PBMC are isolated from buffy coat and are stored frozen for assays as needed.
The subject of assay [2] is IL-12 induced STAT4 phophorylation mediated by Tyk2/JAK2 (heterodimeric complex). As to the kind of experiment: IL-12 Induced pSTAT4 in Human PBMC. The following applies: 1.7 ng/mL IL-12. Format: cell-based. The source says:
The IL-12 Induced pSTAT4 assay evaluates the inhibition of IL-12 induced STAT4 phophorylation mediated by Tyk2/JAK2 (heterodimeric complex).

Setting [3] is: Homo sapiens, PBMC, 20 min, read-out: PBMC_GMCSF_pSTAT5 IC50, human PBMC.

`CNc1cc(Nc2cccn(C3CCCCC3)c2=O)nc2c(C(=O)N[C@@H]3CC[C@H]3O)cnn12` [I-943]: the pIC50 is less than 4.30 in assay [1] (setting [3]) and more than 7.00 in assay [2].

For `CNc1cc(Nc2cccn(-c3cccc(F)c3)c2=O)nc2c(C(=O)N[C@@H]3CC[C@H]3O)cnn12` [I-946], the values for the pIC50 in assay [1] (setting [3]) and in assay [2] were less than 4.30 and more than 7.00, respectively.

For the compound `CNc1cc(Nc2cccn([C@@H]3CCC[C@H](OC)C3)c2=O)nc2c(C(=O)NCC(C)(C)CO)cnn12` [I-951], the pIC50 in assay [1] (setting [3]) was less than 4.30; in assay [2], more than 7.00.

As to `CNc1cc(-c2cn(CCN3CCN(C)CC3)c3ncccc23)nc2c(C(=O)N[C@H]3CC[C@@H]3OC)cnn12` [I-952], the pIC50 in assay [1] (setting [3]) is less than 5.60; in assay [2] it was 6.30 to 7.00.

Regarding `CNc1cc(Nc2cccn([C@H]3CC[C@](C)(OC)CC3)c2=O)nc2c(C(=O)N[C@@H]3CC[C@H]3OC)cnn12` [I-959], the pIC50 in assay [1] (setting [3]) was less than 4.30; in assay [2], more than 7.00.

For the compound `CNc1cc(-c2cn(C3CC3)c3ncccc23)nc2c(C(=O)NC3CC3)cnn12` [I-960, N-cyclopropyl-5-(1-cyclopropyl-1H-pyrrolo[2,3-b]pyridin-3-yl)-7-(methylamino)pyrazolo[1,5-a]pyrimidine-3-carboxamide], the figures for the pIC50 in assay [1] (setting [3]) and in assay [2] were less than 4.30 and more than 7.00, respectively.

Consider `CNc1cc(-c2cn(C3CC3)c3ncccc23)nc2c(C(=O)N[C@@H]3C[C@@H]3F)cnn12` [I-961, 5-(1-cyclopropyl-1H-pyrrolo[2,3-b]pyridin-3-yl)-N-((1R,2S)-2-fluorocyclopropyl)-7-(methylamino)pyrazolo[1,5-a]pyrimidine-3-carboxamide], for which the pIC50 is less than 4.30 in assay [1] (setting [3]) and more than 7.00 in assay [2].

In the case of `CNc1cc(-c2cn(C3CC3)c3ncccc23)nc2c(C(=O)N[C@H]3CC[C@H]3O)cnn12` [I-992, 5-(1-cyclopropyl-1H-pyrrolo[2,3-b]pyridin-3-yl)-N-((1S,2R)-2-hydroxycyclobutyl)-7-(methylamino)pyrazolo[1,5-a]pyrimidine-3-carboxamide], the values for the pIC50 in assay [1] (setting [3]) and in assay [2] were less than 4.30 and more than 7.00, respectively.

As to `CNc1cc(Nc2cccn([C@@H]3CCC[C@H](OC)C3)c2=O)nc2c(C(=O)N[C@@H]3CC[C@H]3OC)cnn12` [I-995], the results for the pIC50 in assay [1] (setting [3]) and in assay [2] were less than 4.30 and more than 7.00, respectively.

As for `CNc1cc(Nc2cccn(C3CCCCC3)c2=O)nc2c(C(=O)N[C@@H]3CC[C@@H]3O)cnn12` [I-1000], the pIC50 is less than 4.30 in assay [1] (setting [3]) and more than 7.00 in assay [2].

Take `CNc1cc(Nc2cccn(C3CCCCC3)c2=O)nc2c(C(=O)N[C@@H]3CC[C@H]3O)cnn12` [I-1002]: the negative logarithm of the IC50 (pIC50) was less than 4.30 in assay [1] (read-out: PBMC_GMCSF_pSTAT5 IC50, human PBMC) and more than 7.00 in assay [2].
